SMILES strings stand for the structures. In brackets after ≈: the same amount, converted by molar mass.

Assay type in all cases: cell-based
Assay [1] deals with Staphylococcus aureus EN1252a gyrA^S84L grlA^S80F. Briefly: microbe, parasite or virus in culture. The settings on record: read-out: Antimicrobial activity (MIC). In outline: (§1)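 Tested organisms were S. aureus ATCC 29213 rpoB mutants (D417Y, H418Y; rifampin-resistant) and double gyrase/topoisomerase IV mutant EN1252a (quinolone-resistant). Growth in cation-adjusted Mueller-Hinton broth at 37 °C; MIC by microbroth dilution per NCCLS guidelines.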

In assay [2] the test system is Staphylococcus aureus ATCC29213 rpoB^H418Y. Briefly: microbe, parasite or virus in culture. The note with it: ATCC29213, read-out: Antimicrobial activity (MIC). In outline: as §1
The subject of assay [3] is Staphylococcus aureus ATCC29213 rpoB^D417Y. Briefly: microbe, parasite or virus in culture. The settings on record: ATCC29213, read-out: Antimicrobial activity (MIC). Summed up: as §1
The test system of assay [4] is Streptococcus pneumoniae ATCC6303. The assay can be described thus: MIC, microbroth dilution (NCCLS). The note with it: rifS strain, THY Broth with 1 mg/mL catalase, 5% CO2, 37° C., read-out: Antimicrobial activity (MIC). For orientation: In broth dilution the organism is exposed to a series of concentrations in liquid medium.
For assay [5], the system named is Staphylococcus epidermidis ATCC12228. Briefly: MIC, microbroth dilution (NCCLS). The note with it: rifS strain, Cation-Adjusted Mueller-Hinton Broth, 37° C., read-out: Antimicrobial activity (MIC).
Assay [6] deals with Haemophilus influenzae ATCC10211. Briefly: MIC, microbroth dilution (NCCLS). The settings on record: rifS strain, BHI Broth with NAD and hematin, 37° C., read-out: Antimicrobial activity (MIC).
Assay [7] concerns Enterococcus faecalis ATCC29212. The assay can be described thus: MIC, microbroth dilution (NCCLS). The settings on record: rifS strain, BHI Broth, 37° C., read-out: Antimicrobial activity (MIC).
For assay [8], the system named is Escherichia coli ATCC25922. The assay can be described thus: MIC, microbroth dilution (NCCLS). The note with it: rifS strain, Cation-Adjusted Mueller-Hinton Broth, 37° C., read-out: Antimicrobial activity (MIC).
For assay [9], the system named is Staphylococcus aureus ATCC29213. Briefly: MIC, microbroth dilution (NCCLS). The settings on record: rifS strain, Cation-Adjusted Mueller-Hinton Broth, 37° C., read-out: Antimicrobial activity (MIC).
Assay [10] relates to Mycobacterium smegmatis ATCC700084. Briefly: MIC, microbroth dilution (NCCLS). The settings on record: Mycolicibacterium smegmatis, rifS strain, Middlebrook Broth plus ADC Enrichment, 37° C., read-out: Antimicrobial activity (MIC).
For assay [11], the system named is Streptococcus pyogenes ATCC19615. The assay can be described thus: MIC, microbroth dilution (NCCLS). The settings on record: rifS strain, THY Broth, 37° C., read-out: Antimicrobial activity (MIC).

For `CO[C@H]1/C=C/O[C@@]2(C)Oc3c(C)c(O)c4c(O)c(c(CNC5CCN(c6c(F)cc7c(=O)c(C(=O)O)cn(C8CC8)c7c6Cl)C5)c(O)c4c3C2=O)NC(=O)/C(C)=C\C=C\[C@H](C)[C@H](O)[C@@H](C)[C@@H](O)[C@@H](C)[C@H](OC(C)=O)[C@@H]1C` (mixture of isomers) [Example 13, (R/S)-3-[1-(8-Chloro-3-carboxy-1-cyclopropyl-6-fluoro-4-oxo-1,4-dihydroquinolin-7-yl)-pyrrolidinyl-3-aminomethyl]rifamycin SV], the MIC is 0.004 to 0.5 µg/mL (≈ 0.00372 to 0.465 µM) in [1]; 0.06 to 16 µg/mL (≈ 0.0558 to 14.9 µM) in assay [2]; 0.06 to 32 µg/mL (≈ 0.0558 to 29.8 µM) in assay [3]; 0.008 to 0.125 µg/mL (≈ 0.00744 to 0.116 µM) in assay [4]; 0.008 to 0.063 µg/mL (≈ 0.00744 to 0.0586 µM) in assay [5]; 0.125 to 2 µg/mL (≈ 0.116 to 1.86 µM) in assay [6]. Further, the MIC in assay [7] was in the range of 2 to 32 µg/mL (≈ 1.86 to 29.8 µM); in [8] it was 0.125 to 8 µg/mL (≈ 0.116 to 7.44 µM); in assay [9], 0.004 to 0.5 µg/mL (≈ 0.00372 to 0.465 µM); in [10], 0.5 to 64 µg/mL; in assay [11], 0.008 to 0.063 µg/mL (≈ 0.00744 to 0.0586 µM).
As for `CO[C@H]1/C=C/O[C@@]2(C)Oc3c(C)c(O)c4c(c3C2=O)C(=O)C(N2CCC(NCC3CCN(c5c(F)cc6c(=O)c(C(=O)O)cn(C7CC7)c6c5Cl)C3)CC2)=C(NC(=O)/C(C)=C\C=C\[C@H](C)[C@H](O)[C@@H](C)[C@@H](O)[C@@H](C)[C@H](OC(C)=O)[C@@H]1C)C4=O` (mixture of isomers) [Example 36, (R/S)-3-{4-[1-(3-Carboxy-8-chloro-1-cyclopropyl-6-fluoro-4-oxo-1,4-dihydroquinolin-7-yl)-(pyrrolidin-3-ylmethyl)-amino]-piperidin-1-yl}rifamycin S], the MIC was 0.004 to 0.5 µg/mL (≈ 0.00346 to 0.432 µM) in assay [1]; 0.06 to 16 µg/mL (≈ 0.0519 to 13.8 µM) in [2]; 0.06 to 32 µg/mL (≈ 0.0519 to 27.7 µM) in assay [3]; 0.008 to 0.125 µg/mL (≈ 0.00692 to 0.108 µM) in assay [4]; 0.008 to 0.063 µg/mL (≈ 0.00692 to 0.0545 µM) in [5]; 0.125 to 2 µg/mL (≈ 0.108 to 1.73 µM) in [6]. Besides, the MIC in [7] lay within 2 to 32 µg/mL (≈ 1.73 to 27.7 µM); in assay [8], 0.125 to 8 µg/mL (≈ 0.108 to 6.92 µM); in assay [9] it was 0.004 to 0.5 µg/mL (≈ 0.00346 to 0.432 µM); in assay [10], 0.5 to 64 µg/mL; in assay [11], 0.008 to 0.063 µg/mL (≈ 0.00692 to 0.0545 µM).
For `COc1c(N2CCC(NC(=O)C3CN(C4=C5NC(=O)/C(C)=C\C=C\[C@H](C)[C@H](O)[C@@H](C)[C@@H](O)[C@@H](C)[C@H](OC(C)=O)[C@H](C)[C@@H](OC)/C=C/O[C@@]6(C)Oc7c(C)c(O)c(c(c7C6=O)C4=O)C5=O)C3)C2)c(F)cc2c(=O)c(C(=O)O)cn(C3CC3)c12` (mixture of isomers) [Example 44, (R/S)-3-{3-[1-(3-Carboxy-1-cyclopropyl-6-fluoro-8-methoxy-4-oxo-1,4-dihydroquinolin-7-yl)-pyrrolidin-3-ylcarbamoyl]-azetidin-1-yl}rifamycin S], the MIC in assay [1] lay in the range of 0.004 to 0.5 µg/mL (≈ 0.00351 to 0.439 µM); in assay [2], 0.06 to 16 µg/mL (≈ 0.0527 to 14.1 µM); in [3], 0.06 to 32 µg/mL (≈ 0.0527 to 28.1 µM); in [4], 0.008 to 0.125 µg/mL (≈ 0.00703 to 0.11 µM); in [5] it was 0.008 to 0.063 µg/mL (≈ 0.00703 to 0.0554 µM); in assay [6], 0.125 to 2 µg/mL (≈ 0.11 to 1.76 µM). For the same compound, the MIC lay in the range of 2 to 32 µg/mL (≈ 1.76 to 28.1 µM) in assay [7]; 0.125 to 8 µg/mL (≈ 0.11 to 7.03 µM) in assay [8]; 0.004 to 0.5 µg/mL (≈ 0.00351 to 0.439 µM) in assay [9]; 0.5 to 64 µg/mL in assay [10]; 0.008 to 0.063 µg/mL (≈ 0.00703 to 0.0554 µM) in assay [11].
Consider `COc1c(N2CCC(NC3CCN(C4=C5NC(=O)/C(C)=C\C=C\[C@H](C)[C@H](O)[C@@H](C)[C@@H](O)[C@@H](C)[C@H](OC(C)=O)[C@H](C)[C@@H](OC)/C=C/O[C@@]6(C)Oc7c(C)c(O)c(c(c7C6=O)C4=O)C5=O)CC3)C2)c(F)cc2c(=O)c(C(=O)O)cn(C3CC3)c12` (mixture of isomers) [Example 30, (R/S)-3-{4-[1-(3-Carboxy-1-cyclopropyl-6-fluoro-8-methoxy-4-oxo-1,4-dihydroquinolin-7-yl)-pyrrolidin-3-ylamino]-piperidin-1-yl}rifamycin S], for which the MIC lay within 0.004 to 0.5 µg/mL (≈ 0.00351 to 0.439 µM) in assay [1]; 0.06 to 16 µg/mL (≈ 0.0527 to 14.1 µM) in assay [2]; 0.06 to 32 µg/mL (≈ 0.0527 to 28.1 µM) in assay [3]; 0.008 to 0.125 µg/mL (≈ 0.00703 to 0.11 µM) in assay [4]; 0.008 to 0.063 µg/mL (≈ 0.00703 to 0.0553 µM) in assay [5]; 0.125 to 2 µg/mL (≈ 0.11 to 1.76 µM) in assay [6]. Moreover, the MIC lay in the range of 2 to 32 µg/mL (≈ 1.76 to 28.1 µM) in assay [7]; 0.125 to 8 µg/mL (≈ 0.11 to 7.03 µM) in assay [8]; 0.004 to 0.5 µg/mL (≈ 0.00351 to 0.439 µM) in assay [9]; 0.5 to 64 µg/mL in [10]; 0.008 to 0.063 µg/mL (≈ 0.00703 to 0.0553 µM) in [11].
As to `CO[C@H]1/C=C/O[C@@]2(C)Oc3c(C)c(O)c4c(c3C2=O)C(=O)C(N2CC(C(=O)N3CCN(c5ccc(N6C[C@H](CNC(C)=O)OC6=O)cc5F)CC3)C2)=C(NC(=O)/C(C)=C\C=C\[C@H](C)[C@H](O)[C@@H](C)[C@@H](O)[C@@H](C)[C@H](OC(C)=O)[C@@H]1C)C4=O` [Example 48, 3-{3-(4-[1-(5-methyl-acetamidyl-2-oxo-oxazolidin-3-yl)-5-fluoro-phen-4-yl]-piperazin-1-ylcarbonyl)-azetidin-1-yl}-rifamycin S], the MIC fell in the range of 0.004 to 0.5 µg/mL (≈ 0.00359 to 0.449 µM) in assay [1]; 0.06 to 16 µg/mL (≈ 0.0539 to 14.4 µM) in assay [2]; 0.06 to 32 µg/mL (≈ 0.0539 to 28.7 µM) in [3]; 0.008 to 0.125 µg/mL (≈ 0.00719 to 0.112 µM) in assay [4]; 0.008 to 0.063 µg/mL (≈ 0.00719 to 0.0566 µM) in assay [5]; 0.125 to 2 µg/mL (≈ 0.112 to 1.8 µM) in [6]. The MIC in assay [7] is 2 to 32 µg/mL (≈ 1.8 to 28.7 µM); in assay [8], 0.125 to 8 µg/mL (≈ 0.112 to 7.19 µM); in assay [9], 0.004 to 0.5 µg/mL (≈ 0.00359 to 0.449 µM); in [10], 0.5 to 64 µg/mL; in assay [11], 0.008 to 0.063 µg/mL (≈ 0.00719 to 0.0566 µM).

These data come from patent publication US7247634B2, “Rifamycin derivatives effective against drug-resistant microbes” (Cumbre Pharmaceuticals Inc., priority 2004, dated 2007).
